Reference: PubChem BioAssay AID1963851 (Molecular Pharmacology Branch, DTP, NCI, 2024)

Test system: 188146-221-R-J1-PDC complex spheroid viability
Test: Anticancer human tumor 188146-221-R-J1-PDC patient-derived colon adenocarcinoma cell line growth inhibition [POLQ]
Conditions: for IC50: curve of first compound; for viability, T/C: stronger effect = lower value; active means viability on the fitted dose curve at most 10% of control; inactive means the rest
Procedure: Multicellular complex tumor spheroid response to Polymerase (POL) inhibitors (novobiocin, ART-558, RP6685) in combination with a variety of drugs and investigational agents in selected tumor cell lines
The POL inhibitors (novobiocin, ART-558, and RP6685) were evaluated both individually and in combination with standard of care and investigational anticancer small molecules within a complex spheroid model of solid tumors. . Complex spheroids include a stromal component modeled by human endothelial cells (HUVEC) and fibroblasts modeled by human mesenchymal stem cells (MSCs). The concentration ranges selected for each drug and investigational agent were based upon clinically achievable concentrations if the clinical Cmax of the agent was known.
Compounds. The drugs and investigational agents: novobiocin (NSC847541), ART-558 (NSC835418), RP-6685 (NSC848927), peposertib (NSC802822), ceralasertib (NSC780249), elimusertib (NSC800525), camonsertib (NSC841442), AZD-1390 (NSC803789), olaparib (NSC753686), talazoparib (NSC767125), rucaparib (NSC756644), sotorasib (NSC818433), MRTX-1133 (NSC836407), SN-38 (NSC673596), topotecan (NSC609699), epotoside (NSC141540), doxorubicin (NSC123127), gemcitabine (NSC613327), 5-fluorouracil (NSC19893), paclitaxel (NSC125973), vemurafenib (NSC761431), MSA-2 (NSC828583), SN-011 (NSC837082), adavosertib (NSC754352), prexasertib (NSC758257), carboplatin (NSC241240) and oxaliplatin (NSC266046), were obtained from the National Cancer Institute (NCI) Developmental Therapeutics Program Chemical Repository (21). The FDA-approved anticancer drug set is available from the Developmental Therapeutics Program at https://dtp.cancer.gov/organization/dscb/obtaining/. […] The stock solutions were prepared in dimethyl sulfoxide (DMSO, Sigma-Aldrich, St. Louis, MO, cat. D2650), except for the platinum compounds which were prepared in saline (Quality Biological, Gaithersburg, MD, cat. 114-055-101), at 800-fold the tested concentration and stored at -70 degrees C prior to their use. All drugs and investigational agents were tested over a range starting from a high concentration at or near the clinical Cmax and decreasing in half-log increments. If the clinical Cmax for an agent had not been determined, the highest concentration tested was 10 microM, except for SN-38, which was tested at a high concentration of 1 microM.
Cell Culture. All cells were maintained in an incubator at 37 degrees C and 5% CO2 with 95% humidity. The PDC lines were cultured according to standard operating procedures established by the NCI PDMR (https://pdmr.cancer.gov). Table 3 of the manuscript, lists the cell lines along with the number of the three cell types plated to form the mct-spheroids and media for tumor cell growth. After thawing, all PDC lines, except 997537-175-T-J1-PDC and 415267-285-R-J2-PDC, were cultured in Matrigel-coated flasks prepared with a working solution of 1X Ham's F-12 nutrient mix, without supplementation (Thermo Fisher Scientific, cat. 11765054), 100 U/mL penicillin-streptomycin (Thermo Fisher Scientific, cat. 15140122), and 2.5% Matrigel (Corning Inc., Corning, NY, cat. 354248) for the first three passages. The two PDC lines 997537-175-T-J1-PDC and 415267-285-R-J2-PDC were cultured on uncoated flasks. The 857933-349-R-J2-PDC line was cultured in 6C/Colon 1B media containing advanced DMEM/F-12 (Thermo Fisher Scientific, cat. 12634028), 10 mM HEPES (Thermo Fisher Scientific, cat. 15630080), 1X GlutaMAX supplement (Thermo Fisher Scientific, cat. 35050061), 0.1 mg/mL primocin (InvivoGen, San Diego, CA, cat. ant-pm-2), 10% defined fetal bovine serum, heat inactivated (HyClone Laboratories Inc., Logan, UT, cat. SH30070.03HI), 50% L-WRN conditioned media (ATCC, cat. CRL-3276), 1.25 mM N-Acetyl-L-cysteine (Sigma-Aldrich, cat. A9165), 10 mM nicotinamide (Sigma-Aldrich, cat. N0636), 1X B-27 supplement (Thermo Fisher Scientific, cat. 17504044), 1X N-2 supplement (Thermo Fisher Scientific, cat. […]

[1] = second compound 0.0316 µM, first compound 0.0316 µM
[2] = second compound 0.0316 µM, first compound 0.1 µM
[3] = second compound 0.0316 µM, first compound 0.316 µM
[4] = second compound 0.0316 µM, first compound 1 µM
[5] = second compound 0.0316 µM, first compound 3.16 µM
[6] = second compound 0.0316 µM, first compound 10 µM
[7] = second compound 0.1 µM, first compound 0.0316 µM
[8] = second compound 0.1 µM, first compound 0.1 µM
[9] = second compound 0.1 µM, first compound 0.316 µM
[10] = second compound 0.1 µM, first compound 1 µM
[11] = second compound 0.1 µM, first compound 3.16 µM
[12] = second compound 0.1 µM, first compound 10 µM
[13] = second compound 0.316 µM, first compound 0.0316 µM
[14] = second compound 0.316 µM, first compound 0.1 µM
[15] = second compound 0.316 µM, first compound 0.316 µM
[16] = second compound 0.316 µM, first compound 1 µM
[17] = second compound 0.316 µM, first compound 3.16 µM
[18] = second compound 0.316 µM, first compound 10 µM
[19] = second compound 1 µM, first compound 0.0316 µM
[20] = second compound 1 µM, first compound 0.1 µM
[21] = second compound 1 µM, first compound 0.316 µM
[22] = second compound 1 µM, first compound 1 µM
[23] = second compound 1 µM, first compound 3.16 µM
[24] = second compound 1 µM, first compound 10 µM
[25] = second compound 3.16 µM, first compound 0.0316 µM
[26] = second compound 3.16 µM, first compound 0.1 µM
[27] = second compound 3.16 µM, first compound 0.316 µM
[28] = second compound 3.16 µM, first compound 1 µM
[29] = second compound 3.16 µM, first compound 3.16 µM
[30] = second compound 3.16 µM, first compound 10 µM
[31] = second compound 10 µM, first compound 0.0316 µM
[32] = second compound 10 µM, first compound 0.1 µM
[33] = second compound 10 µM, first compound 0.316 µM
[34] = second compound 10 µM, first compound 1 µM
[35] = second compound 10 µM, first compound 3.16 µM
[36] = second compound 10 µM, first compound 10 µM
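Further: spheroids exposed to compounds for seven days.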

CCc1cc2c(N3CCc4c(cc(Cn5ccnc5)cc4-c4cn(C)nc4C(F)(F)F)C3=O)cc(C)nc2c(OC)n1 + Cc1cccc(N(C)C(=O)C2C(O)CCN2c2nc(C)cc(C(F)(F)F)c2C#N)c1
5.43 µM: IC50 (second compound 10 µM)
inactive: viability, T/C [1] 105% | viability, T/C [2] 90.4% | viability, T/C [3] 87% | viability, T/C [4] 84.9% | viability, T/C [5] 65.7% | viability, T/C [6] 44.5% | viability, T/C [7] 95.9% | viability, T/C [8] 90.9% | viability, T/C [9] 96% | viability, T/C [10] 86.4% | viability, T/C [11] 68.4% | viability, T/C [12] 40.3% | viability, T/C [13] 112% | viability, T/C [14] 94% | viability, T/C [15] 106% | viability, T/C [16] 98.2% | viability, T/C [17] 67% | viability, T/C [18] 41.9% | viability, T/C [19] 93.8% | viability, T/C [20] 87.3% | viability, T/C [21] 107% | viability, T/C [22] 88.5% | viability, T/C [23] 72.9% | viability, T/C [24] 43.1% | viability, T/C [25] 101% | viability, T/C [26] 100% | viability, T/C [27] 94.4% | viability, T/C [28] 81.9% | viability, T/C [29] 65.3% | viability, T/C [30] 41.4% | viability, T/C [31] 97.2% | viability, T/C [32] 95.7% | viability, T/C [33] 96.7% | viability, T/C [34] 71.1% | viability, T/C [35] 64.9% | viability, T/C [36] 36.6%
6.58 µM: IC50 (second compound 3.16 µM)
6.71 µM: IC50 (second compound 0.1 µM)
7.65 µM: IC50 (second compound 1 µM)
6.91 µM: IC50 (second compound 0.316 µM)
7.64 µM: IC50 (second compound 0.0316 µM)

COc1cc2cc(C(=O)CCC(=O)O)sc2cc1OC + Cc1cccc(N(C)C(=O)C2C(O)CCN2c2nc(C)cc(C(F)(F)F)c2C#N)c1
> 10 µM: IC50 (second compound 0.0316 µM) | IC50 (second compound 0.1 µM) | IC50 (second compound 0.316 µM) | IC50 (second compound 1 µM) | IC50 (second compound 3.16 µM) | IC50 (second compound 10 µM)
inactive: viability, T/C [1] 95.5% | viability, T/C [2] 109% | viability, T/C [3] 94.2% | viability, T/C [4] 91.3% | viability, T/C [5] 103% | viability, T/C [6] 93.5% | viability, T/C [7] 102% | viability, T/C [8] 100% | viability, T/C [9] 109% | viability, T/C [10] 97.8% | viability, T/C [11] 97.5% | viability, T/C [12] 105% | viability, T/C [13] 95.9% | viability, T/C [14] 98.7% | viability, T/C [15] 93.2% | viability, T/C [16] 94% | viability, T/C [17] 96.1% | viability, T/C [18] 99% | viability, T/C [19] 94.1% | viability, T/C [20] 80.5% | viability, T/C [21] 93.6% | viability, T/C [22] 96.6% | viability, T/C [23] 112% | viability, T/C [24] 92.7% | viability, T/C [25] 100% | viability, T/C [26] 107% | viability, T/C [27] 84.8% | viability, T/C [28] 88.6% | viability, T/C [29] 92.5% | viability, T/C [30] 86.9% | viability, T/C [31] 101% | viability, T/C [32] 96.2% | viability, T/C [33] 92.3% | viability, T/C [34] 88.7% | viability, T/C [35] 88.8% | viability, T/C [36] 103%
